How the values were obtained:
[1] = system: Rat Hind-Limb Ischemia Model; assay: Angiography analysis, rat hind-limb ischemia; format: in vivo; conditions: 28 days after induction of hind-limb ischemia; p<0.01 and p<0.001
Procedure: The number of intersections between contrast-filled vessels was determined by image analysis 28 days after induction of hind-limb ischemia.

[2] = system: Rat Hind-Limb Ischemia Model; assay: In vivo assessment of limb function, rat hind-limb ischemia; conditions: for Incidence of limb function score 0 / Incidence of limb function score 1 / Incidence of limb function score 2 / Incidence of limb function score 3: Day 28
Procedure: The femoral artery and vein were ligated twice with 4-0 silk thread and transected between the ligatures. The wound was closed with 3-0 silk thread and the rats were allowed to recover.
(§1) Animals in group 4M and 5M were injected s.c. once on Day 8, see Table 12.
Semi-quantitative assessment of impaired use of the ischemic limb was performed once a week post-surgery using the scale presented in Table 7. Scoring was performed by personnel blinded to the treatment.

tMCAO rat-stroke model = assay: Body swing test, tMCAO rat; format: in vivo; conditions: all treated rats; day 7 up to day 28
Procedure: Transient middle cerebral artery occlusion was performed according to the method previously described in Stroke 29, 2162-2170 (1998). The right common carotid artery (CCA) was exposed through a midline neck incision and carefully dissected free from surrounding nerves and fascia—from its bifurcation to the base of the skull. The occipital artery branches of the external carotid artery (ECA) were then isolated, and these branches were dissected and coagulated. The ECA was dissected further distally and coagulated along with the terminal lingual and maxillary artery branches, which was then divided. The internal carotid artery (ICA) was isolated and carefully separated from the adjacent vagus nerve, and the pterygopalatine artery was ligated close to its origin with a 5-0 nylon suture (SMI, Belgium). […]
The rat was held approximately one inch from the base of its tail. […] A swing was recorded whenever the rat moves its head out of the vertical axis to either side. Before attempting another swing, the rat was returned to the vertical position for the next swing to be counted. Twenty total swings were counted. […] Body swing scores were expressed as a percentage of rightward over total swings. […]

[3] = Body weight, mouse critical limb ischemia study; format: in vivo
Excerpt: In total 60 male Balb/c mice, 9 weeks old, having an average body weight of 24.7 g at study initiation (day 0) were obtained from Harlan Laboratories, Israel. The minimal and maximal weight recorded in each group was within the range of ±20% of the group mean. Animals were handled according to the National Institute of Health (NIH) and the Association for Assessment and Accreditation of Laboratory Animal Care (AAALAC). Animals were housed in polysufone (PSU) cages (5/cage) measuring […], with stainless steel top grill having facilities for pelleted food and drinking water in glass-clear polycarbonate bottle; bedding: steam sterilized clean paddy husk (Harlan, Sani-chip, Cat #: 106S8216) was used and bedding material was changed along with the cage at least twice a week. Animals were fed ad libitum a commercial rodent diet (Teklad Certified Global 18% Protein Diet cat #: 106S8216). Animals had free access to autoclaved and acidified drinking water (pH between 2.5 and 3.5) obtained from the municipality supply. Animals were housed under standard laboratory conditions, air conditioned and filtered (HEPA F6/6) with adequate fresh air supply (minimum 15 air changes/hour). Animals were kept in a climate controlled environment. Temperatures range was 20-24° C. and RH range was 30-70% with 12 hours light and 12 hours dark cycle.
Body weight was measured on study day −1 prior to surgery and once a week thereafter. […] From day 14 onwards a gradual increase in weight was observed. Accordingly, between day 0 and day 35 the mean increase in body weight ranged between 0.4 g to 1.7 g, see Table 2.

[4] = system: Rat Hind-Limb Ischemia Model; assay: Immunohistochemistry, SMA and Factor 8 capillaries density, rat hind-limb ischemia; format: in vivo; conditions: groups 2M-5M vs control 1M; Day 28
Procedure: Four sections of muscle samples were taken from the same areas of six animals from groups 1M, 2M, 3M, 4M, 5M and stained for blood vessels using antibodies against SMA and Factor 8. The area of blood vessels was evaluated by using image analysis. Density was expressed as the mean number of capillaries per field of view. Total vessels represented all blood vessels in the measured area. The number of SMA and factor 8 positive capillaries in right ischemic limb was larger in all dextran sulfate treated groups 2M-5M compared to the control group 1M on Day 28 of the study, see FIG. 23. SMA and factor 8 positive staining are considered as an indication for small capillaries formation in rats, and thus the obtained results supported blood flow improvement observed in the animal groups treated with dextran sulfate. Statistical analysis performed using two-way ANOVA followed by Bonferroni multiple comparisons, */** indicate p<0.0510.01.

[5] = Adverse effects, rat hind-limb ischemia study; format: in vivo; conditions: 30 and 3 mg/kg s.c., 3 times a week or single dose
Procedure: as §1
In the present study blood flow improvement in the rat hind-limb ischemia model was examined in order to evaluate the efficacy of dextran sulfate in two different doses and treatment regimes. […] Both doses and administration regimens were efficacious. No spontaneous amputations or toe necrosis occurred in any of the treated or control animal groups. […] Collectively the data of this study confirmed the therapeutic efficacy of dextran sulfate for the treatment of occlusive peripheral arterial disease in the rat hind-limb ischemia model.

[6] = group 2M, 30 mg/kg s.c. 3 times a week
[7] = group 3M, 30 mg/kg (as printed in Table 12) s.c. 3 times a week
[8] = group 4M, 30 mg/kg s.c. administered once
[9] = group 5M, 3 mg/kg s.c. administered once

With Dextran sulfate the “Angiography: collaterals in affected limb vs vehicle control” value [1] was “significantly large numbers of collaterals”, the “Incidence of limb function score 0” value [2, 6] was 100% and the “Incidence of limb function score 1” value [2, 6] was 0%. For the same substance, the “Incidence of limb function score 2” value [2, 6] was 0%, the “Incidence of limb function score 3” value [2, 6] was 0% and the “Incidence of limb function score 0” value [2, 7] was 88%. For the same substance, the “Incidence of limb function score 1” value [2, 7] was 12%, the “Incidence of limb function score 2” value [2, 7] was 0% and the “Incidence of limb function score 3” value [2, 7] was 0%. For the same substance, the “Incidence of limb function score 0” value [2, 8] was 100%, the “Incidence of limb function score 1” value [2, 8] was 0% and the “Incidence of limb function score 2” value [2, 8] was 0%. For the same substance, the “Incidence of limb function score 3” value [2, 8] was 0%, the “Incidence of limb function score 0” value [2, 9] was 94% and the “Incidence of limb function score 1” value [2, 9] was 6%. For the same substance, the “Incidence of limb function score 2” value [2, 9] was 0%, the “Incidence of limb function score 3” value [2, 9] was 0% and the “Limb function score, treated groups vs control” value ([2]; groups 2M, 3M, 4M and 5M vs 1M, Day 14 through Day 28) was “statistically significant differences”. The “Body swing test compared to vehicle control” value (tMCAO rat-stroke model) was “statistically significant improvement”, the “Mean weight change from day 0 to day 35” value ([3]; group 2M, 10 mg/kg s.c. 3 times/week from day 8) was 1.0 g and the “Mean weight change from day 0 to day 35” value ([3]; group 3M, 30 mg/kg s.c. 3 times/week from day 8) was 1.7 g. For the same substance, the “Mean weight change from day 0 to day 35” value ([3]; group 4M, 30 mg/kg s.c. 1 time/week from day 8) was 1.0 g, the “Mean body weight, differences between the groups” value ([3]; throughout the study, two-way ANOVA, Bonferroni) was “no statistically significant differences” and the “Number of SMA and factor 8 positive capillaries in right ischemic limb” value [4] was “larger”. For the same substance, the “Adverse effects in the treated animals” value [5] was “did not cause any adverse effects”.

Reference: patent US10925890B2, “Use of dextran sulfate” (TX MEDIC AB, priority 2014, dated 2021)
